Assay [1] relates to PMP tumor/mucin. Description: Breakdown of PMP tumor/mucin specimens from 31 patients in the laboratory. It is filed as biochemical, human. As to conditions: for Residual mucin weight post treatment: 300 μg/ml Br, 5% NAC or both. The protocol: Specimens of tumor/mucin were taken from the abdomen and then subjected to treatment in the laboratory with 300 μg/ml Br, 5% NAC, or a mixture of both, for 3 hours at 37° C. The weight of mucin tumor was measured before and after treatment.

Assay [2] has as its system mesothelioma cell lines PET and YOU (MUC1). Kind of assay: Growth inhibition of MUC1 mesothelioma cell lines (FIG. 9, 10). It counts as cell-based. The source says:
The two mesothelioma cell lines PET and YOU (both of which have MUC1) were investigated. These cell lines are different from cancer cells which secrete mucin externally or that have mucin internally in the cell (signet cell).

Assay [3] relates to variant of HT29 (5M21). Description: Effect of Br and NAC combination on chemotherapy (FIG. 8). It is filed as cell-based. The text has this:
Chemo resistance of mucin secreting cancers is common. The experiments in FIG. 8 again relate to a variant of HT29 (5M21). A combination of Br and NAC was effective, whereas the individual agents were not effective.

Assay [4] has as its system MKN 45 human gastric mucin secreting cancer cell line. Description: In vitro growth, SRB assay, 72 hour culture (FIG. 7a). It is filed as cell-based. As to conditions: MKN 45, SRB assay, agents individually. On the procedure:
MKN 45 is a human gastric mucin secreting cancer cell line. The effect of NAC, Br and the combination on in vitro growth (SRB assay, 72 hour culture) was studied.

In assay [5] the test system is human PMP mucin. Kind of assay: Time course for dissolution of human PMP mucin in the laboratory (FIG. 1). As to conditions: FIG. 1, agent alone. It counts as biochemical.
In assay [6] the test system is MUC 1 cell lines. Description: Br and NAC with chemotherapy drugs in MUC 1 cell lines (FIG. 11, 12). It is filed as cell-based. To be noted: low doses of Cisplatin, FIG. 11 and 12. The source says: The combination of Br and NAC with chemotherapy drugs in MUC 1 cell lines was investigated (see FIGS. 11 and 12).

Molecules are shown by their SMILES. Where “and” joins values, the source holds several entries; their conditions need not be identical. Identical values can stand only once.

For `CC(=O)N[C@@H](CS)C(=O)O` [NAC, N-acetyl cysteine], the “effect of treatment on PMP tumor (Table 1)” value in assay [1] (agent alone, 31 patients) is “ineffective”. Further, the “reduction of weight of mucin tumor” value in assay [1] (in every case, agent on its own, 300 μg/ml Br or 5% NAC, 3 hours at 37° C.) is given as “no (or a very modest) reduction of weight”. In addition, the “Residual mucin weight post treatment” value in assay [1] (patient P1, mucin type soft, 3 hours at 37° C.) is 1.90 g and 1.67 g; in assay [1] (patient P2, mucin type soft, 3 hours at 37° C.), 1.39 g and 1.53 g; in assay [1] (patient P3, mucin type soft, 3 hours at 37° C.), 1.80 g and 1.83 g; in assay [1] (patient P4, mucin type Semi solid, 3 hours at 37° C.), 1.28 g and 1.53 g; in assay [1] (patient P5, mucin type Hard, 3 hours at 37° C.), 1.69 g and 1.79 g; in assay [1] (patient P6, mucin type soft, 3 hours at 37° C.), 2.13 g and 2.08 g. Besides, the “Residual mucin weight post treatment” value in assay [1] (patient P7, mucin type soft, 3 hours at 37° C.) is 2.13 g and 2.08 g; in assay [1] (patient P8, mucin type soft, 3 hours at 37° C.), 0.95 g and 1.61 g; in assay [1] (patient P9, mucin type Signet ring carcinoma, 3 hours at 37° C.), 1.42 g and 1.56 g; in assay [1] (patient P10, mucin type Hard, 3 hours at 37° C.), 1.82 g and 1.73 g; in assay [1] (patient P12, mucin type Semi Hard, 3 hours at 37° C.) it was 1.81 g and 1.94 g; in assay [1] (patient P13, mucin type Hard, 3 hours at 37° C.) it was 1.73 g and 1.43 g. Moreover, the “Residual mucin weight post treatment” value is 1.60 g and 1.57 g in assay [1] (patient P14, mucin type soft, 3 hours at 37° C.); 1.36 g and 1.37 g in assay [1] (patient P15, mucin type soft, 3 hours at 37° C.); 1.69 g and 1.62 g in assay [1] (patient P16, mucin type soft, 3 hours at 37° C.); 2.64 g in assay [1] (patient P17, Scraped mucin from mucoid tissues, 3 hours at 37° C.); 2.31 g and 2.24 g in assay [1] (patient P18, mucin type soft, 3 hours at 37° C.); 1.79 g and 1.89 g in assay [1] (patient P19, Semi soft Mucin deposits on tissue, 3 hours at 37° C.). Besides, the “Residual mucin weight post treatment” value in assay [1] (patient P20, mucin type soft, 3 hours at 37° C.) was 2.34 g and 2.36 g; in assay [1] (patient P21, mucin type soft, 3 hours at 37° C.), 2.38 g and 1.74 g; in assay [1] (patient P22, Adeno-carcinoma, 3 hours at 37° C.), 1.74 g and 1.64 g; in assay [1] (patient P23, mucin type Semi solid, 3 hours at 37° C.) it was 1.76 g; in assay [1] (patient P24, Mucin deposits on tissue, 3 hours at 37° C.), 1.64 g and 1.46 g; in assay [1] (patient P25, mucin type Hard, 3 hours at 37° C.) it was 1.49 g and 1.37 g. In addition, the “Residual mucin weight post treatment” value in assay [1] (patient P26, mucin type Hard, 3 hours at 37° C.) is 1.23 g and 1.26 g; in assay [1] (patient P27, mucin type soft, 3 hours at 37° C.), 1.92 g and 2.03 g; in assay [1] (patient P28, mucin type soft, 3 hours at 37° C.), 1.48 g; in assay [1] (patient P29, mucin type soft, 3 hours at 37° C.), 1.21 g; in assay [1] (patient P30, mucin type soft, 3 hours at 37° C.) it was 1.26 g and 1.16 g; in assay [1] (patient P31, mucin type Hard, 3 hours at 37° C.), 1.56 g and 1.84 g. For the same molecule, the “growth inhibition of PET and YOU” value in assay [2] (50 mM NAC alone) is given as “ineffective”; in assay [2] (FIG. 9 and 10), “no action”. Besides, in assay [3], the “efficacy against 5M21” value was “not effective”. For the same molecule, the “effect on in vitro growth” value in assay [4] is reported as “no or little effect”. The “effect on dissolution of human PMP mucin” value in assay [5] is “no effect”.
As to `N.N.[Cl][Pt][Cl]` [Cisplatin, cisplatin], in assay [6], the “efficacy in MUC 1 cell lines” value is recorded as “ineffective”.

The values above are taken from patent publication US11369666B2, “Treatment of diseases involving mucin” (NewSouth Innovations Pty Limited, priority 2012, dated 2022).
